Where a name gives a salt, the structure may show the parent alone.

The first experiment has as its target T1, SAA binding to heparin (HS-GAG) (Homo sapiens, UniProt P0DJI8).
T1 sequence (P0DJI8 19-122): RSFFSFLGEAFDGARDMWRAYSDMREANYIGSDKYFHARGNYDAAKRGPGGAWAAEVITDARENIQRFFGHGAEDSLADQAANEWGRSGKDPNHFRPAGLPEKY
Kind of experiment: Inhibition of SAA binding to immobilized heparin-BSA (ELISA). Details: species or system porcine. The settings on record: 30 μM compound; SAA, heparin-BSA; read-out: Serum Amyloid A/Heparin Activity (% inhibition class). As for the experimental part: Porcine intestinal mucosa heparin conjugated to Bovine Serum Albumin (Heparin-BSA) was prepared as described (Najjam, S. et al. 1997, Cytokine 12, 1013-1022). Heparin is a sulfated HS-GAG and is commonly used as a HS-GAG in biochemical and binding assays (Lindahl, U. and Kjellen, L. (2013) ibid). Heparin-BSA at 0.01 mg/ml in Phosphate Buffered Saline (PBS; pH 7.4) was added to a 96 well polystyrene ELISA plate (NUNC Cat. No. 449824; 100 μl per well) and incubated Over Night (ON) at 4 degrees Celsius. For negative controls, ELISA plates were coated with BSA instead of Heparin-BSA, using the same procedure. Following the incubation, the plate was washed consecutively, by immersion, with de-ionized water and PBS (pH 7.4). The ELISA plate was then blocked with nonfat milk (2%, 200 μl per well) for 2 hours at Room Temperature (RT) with gentle shaking. Following blocking, the plate was washed with de-ionized water then PBS (pH 7.4). GBAPs were dissolved and diluted in PBS (pH 6.5, supplemented with 0.1% BSA) at desired concentrations, added to the ELISA plates containing immobilized Heparin-BSA (100 μl per well) and incubated for 2 hours at RT with gentle shaking. Following incubation, the plate was washed with de-ionized water and three times with PBS (pH 6.5) plus Tween. Bound GBAP was detected by a monoclonal antibody specific for that GBAP, followed by incubation with secondary antibody conjugated to horseradish peroxidase (HRP). Antibody was diluted in PBS (pH 6.5 supplemented with 1% BSA). Following each incubation with antibody, the plate was washed with de-ionized water and three times with PBS (pH 6.5) wash buffer containing 0.1% Tween. The peroxidase substrate chromogen, TMB (Dako Cat. No. S1599) was added (100 μl per well) to the ELISA plate and incubated at room temperature. After 5 minutes ELISA Stop Solution (hydrochloric acid 1N, sulfuric acid 3N) was added (100 μl per well) to stop the peroxidase catalyzed colorimetric reaction. The Optical Density of the samples was measured at 450 nm using an ELISA plate reader (BioTek Synergy H1). Following color development, the % inhibition compared to control (BSA-coated plates) was determined. IC-50s were calculated using GraphPad Prism software.
The assay was performed as described in Example 43, with the following modifications. Following to coating the plates with Heparin-BSA, plates were washed as described. The compounds were dissolved in DMSO at 10 mM final concentration and further diluted prior to assay. DMSO concentration in the screening well was up to 2%. Individual compounds were co-incubated with SAA on plates containing immobilized heparin. Serum amyloid A (SAA) from PeProtech (NJ, USA, Cat. No. 300-53) was dissolved in DMSO, quickly frozen and kept in aliquots at −80 degrees Celsius. SAA dissolved in Tris buffer (pH 6.5, supplemented with BSA, 0.1%) was added to the ELISA plate (100 μl per well) and incubated for 2 hours at RT with gentle shaking. Following the incubation, the plate was washed with de-ionized water and three times with Tris Buffered Saline (TBS, pH 6.5) plus Tween. Bound SAA was detected by Anti-SAA Monoclonal Antibody (R&D System Cat. No. MAB30192), followed by secondary anti-IgG antibody conjugated to HRP (R&D System, Cat. No. HAF007). Antibody was diluted in TBS antibody buffer (pH6.5 supplemented with 1% BSA). Following each incubation with antibody, the plate was washed with de-ionized water and three times with TBS (pH6.5) wash buffer containing 0.1% Tween. Following to color development with TMB, as described in Example 43, the Optical Density of the samples was measured at 450 nm using an ELISA plate reader. Following color development, the % inhibition compared to control (no compound, DMSO control) for every compound was determined.
As described in Example 43, Heparin in the form of Heparin-BSA conjugate is used as a source of HS-GAG. For each compound IC-50 value in SAA—heparin-BSA binding assay is shown in μM (micromolar). […]
Background: An ELISA detects its analyte on a solid surface through an enzyme-linked reagent.
`CCN1CCN(c2ccc(Nc3ccnc4cc5ccccc5cc34)cc2)CC1` [Compound 39, N-(4-(4-ethylpiperazin-1-yl)phenyl)benzo[g]quinolin-4-amine]: the inhibition at 30 µM was above 30%.

Staying with this experiment, now noted: SAA, heparin-BSA; hydrochloride; read-out: Serum Amyloid A/Heparin Activity (IC-50).
Consider `C/C(=N\Nc1ncnc2cc(Cl)ccc12)c1ccc(-n2cc(C)nc2C)nc1` [Compound 27, (E)-7-chloro-4-(2-(1-(6-(2,4-dimethyl-1H-imidazol-1-yl)pyridin-3-yl)ethylidene)hydrazineyl)quinazoline hydrochloride], for which the IC50 was 24.7 µM.

Staying with this experiment, now noted: SAA, heparin-BSA; read-out: Serum Amyloid A/Heparin Activity (IC-50).
For `CC(=NNc1ncnc2cc(Cl)ccc12)c1ccnc(-n2cnc(C)c2C)c1` [Compound 28, 7-chloro-4-(2-(1-(2-(4,5-dimethyl-1H-imidazol-1-yl)pyridin-4-yl)ethylidene)hydrazineyl)quinazoline], the IC50 came out at 8.78 µM.
Same read-out and setting: to `Clc1ccc2c(Nc3ccc(-n4ccnc4)nc3)ncnc2c1` [Compound 41, N-(6-(1H-imidazol-1-yl)pyridin-3-yl)-7-chloroquinazolin-4-amine] belongs 12.2 µM.

Still in this experiment, the particulars now being: read-out: Serum Amyloid A/Heparin Activity (% inhibition class).
Regarding `C/C(=N\Nc1ncnc2cc(Cl)ccc12)c1cccc(CN(C)C)c1` [Compound 29, 1-(3-(1-(2-(7-chloroquinazolin-4-yl)hydrazineylidene)ethyl)phenyl)—N,N-dimethylmethanamine], the inhibition at 30 µM was below 30%.
Still for that read-out and setting: the result for `C/C(=N\Nc1ncnc2cc(Cl)ccc12)c1cccc(N2CCN(C)CC2)c1` [Compound 30, 7-chloro-4-(2-(1-(3-(4-methylpiperazin-1-yl)phenyl)ethylidene)hydrazineyl)quinazoline] reads below 30%.
The same measure, in the same setting: the result for `COc1cc(Nc2nncc3cc(Cl)ccc23)cnc1-n1cnc(C)c1C` [Compound 31, 6-chloro-N-(6-(4,5-dimethyl-1H-imidazol-1-yl)-5-methoxypyridin-3-yl)phthalazin-1-amine phosphoric acid salt] reads above 30%; that for `C/C(=N\Nc1ncnc2cc(Cl)ccc12)c1ccc(-n2cncn2)nc1` [Compound 32, (E)-4-(2-(1-(6-(1H-1,2,4-triazol-1-yl)pyridin-3-yl)ethylidene)hydrazineyl)-7-chloroquinazoline], above 30%.
The same measure, in the same setting: the result for `COc1cc(Nc2cncc3cc(Cl)ccc23)cnc1-n1cnc(C)c1C` [Compound 33, 7-chloro-N-(6-(4,5-dimethyl-1H-imidazol-1-yl)-5-methoxypyridin-3-yl)isoquinolin-4-amine phosphoric acid salt] reads below 30%; that for `Cc1cn(-c2ccc(Nc3cncc4cc(Cl)ccc34)cn2)c(C)n1` [Compound 37, 7-chloro-N-(6-(2,4-dimethyl-1H-imidazol-1-yl)pyridin-3-yl)isoquinolin-4-amine phosphoric acid salt], below 30%.
For `Cc1ncn(-c2ncc(Nc3ncnc4cc(Cl)ccc34)cc2O)c1C` [Compound 40, 5-((7-chloroquinazolin-4-yl)amino)-2-(4,5-dimethyl-1H-imidazol-1-yl)pyridin-3-ol phosphoric acid salt], the inhibition at 30 µM is above 30%.

The same experiment, now with this note: read-out: Serum Amyloid A/Heparin Activity (IC-50); SAA, heparin-BSA.
With `Clc1ccc2c(Nc3ccc(-n4cncn4)nc3)ncnc2c1` [Compound 34, N-(6-(1H-1,2,4-triazol-1-yl)pyridin-3-yl)-7-chloroquinazolin-4-amine phosphoric acid salt], the IC50 is 12.4 µM.
Turning to `Fc1cc(/C=N/Nc2ccnc3cc(Cl)ccc23)ccc1-n1ccnc1` [Compound 35, (E)-7-chloro-4-(2-(3-fluoro-4-(1H-imidazol-1-yl)benzylidene)hydrazineyl)quinoline hydrochloride], the IC50 came out at 31.8 µM.
Regarding `CC(=NNc1ccnc2cc(Cl)ccc12)c1ccc(-n2ccnc2)cc1` [Compound 36, 4-(2-(1-(4-(1H-imidazol-1-yl)phenyl)ethylidene)hydrazineyl)-7-chloroquinoline phosphate], the IC50 stood at 22 µM.
Still for that read-out and setting: to `Clc1ccc2c(N/N=C/c3ccc(-n4ccnc4)cc3)ccnc2c1` [Compound 38, 4-(2-(4-(1H-imidazol-1-yl)benzylidene)hydrazineyl)-7-chloroquinoline dihydrochloride] belongs 14.9 µM.

Source of the values: US20240398783A1, “Compounds and Pharmaceutical Compositions Comprising Inhibitors of Amyloid Peptide Interactions with Glycosaminoglycans, Methods of Treatment and Use Thereof” (Gismo Therapeutics, Inc., priority 2021, published 2024).
